According to patent US20230348779A1, “FLUORESCENT COMPOUND AND FLUORESCENTLY LABELED BIOLOGICAL SUBSTANCE USING THE SAME” (FUJIFILM Corporation, priority 2021, published 2023):
In brackets after ≈: the same amount, converted by molar mass.

Experiments:
Assay type in all cases: physicochemical
[1] = Evaluation of light resistance; conditions: PBS pH 7.4, xenon lamp 22 mW/cm^2, exposure time until absorbance at absorption peak decreases by 20%
Description: The compound synthesized above was dissolved in a PBS solution (pH 7.4) so that the absorbance at the absorption peak wavelength was 0.095 to 0.105. In a state where this solution was exposed using a merry-go-round type light irradiator (xenon lamp UXL-500D-O manufactured by Ushio Inc., HA-50 filter, Y44 filter, exposure intensity: 22 mW/cm^2 (in terms of 500 nm)), the absorbance at the absorption peak wavelength of each compound was measured over time with a spectrometer (Agilent 8453, manufactured by Agilent Technologies, Inc.). The absorbance at the absorption peak wavelength before light exposure was set to 100% and the light exposure time until the absorbance at this absorption peak wavelength decreases by 20% (the absorbance at the absorption peak wavelength reaches 80%) was measured. The results were evaluated based on the following evaluation standards.
A high evaluation rank is highly preferable since stability is kept for a long time, and in the present test, it is preferable that the light resistance satisfies the evaluation rank “B” or higher from the viewpoint of practicality as the fluorescent compound.
—Evaluation Standards for Light Resistance— • A: 100 hours or more • B: 50 hours or more and less than 100 hours • C: 25 hours or more and less than 50 hours • D: 2 hours or more and less than 25 hours • E: Less than 2 hours • F: Not evaluable due to low water solubility

[2] = Evaluation of water solubility; conditions: PBS pH 7.4, 1% DMSO, 200 μM if completely dissolved, filtrate concentration by UHPLC; for solubility at 30 min: PBS pH 7.4 with 1% DMSO, aqueous buffer, kinetic from dmso stock
Description: 5 μL of a DMSO solution having a concentration of 20 mM of the above compound (hereinafter, referred to as a sample) and 495 μL of PBS having a pH of 7.4 were added and mixed in a 1.5 mL Eppendorf tube and stirred with a multi-shaker MS300 (product name, AS ONE Corporation) at 2,000 rpm for 30 minutes. The obtained mixed solution was allowed to be left for 60 minutes with light shielding and then subjected to centrifugal precipitation (12,000 rpm, 5 minutes). For the filtrate filtered using a filter having a pore diameter of […], the sample concentration was measured with Nexera UHPLC [product name, manufactured by Shimadzu Corporation, column: Shim-pack XR-ODSII] (the sample concentration is 200 μM in a case where the sample is completely dissolved) and evaluated based on the following evaluation standards.
Regarding the water solubility, a high evaluation rank is highly preferable since the hydrophilicity is high, and in the present test, it is preferable that the water solubility satisfies the evaluation rank “C” or higher from the viewpoint of practicality as the fluorescent compound.
—Evaluation Standards for Water Solubility— • A: 100 μM or more • B: 10 μM or more and less than 100 μM • C: 1 μM or more and less than 10 μM • D: Less than 1 μM, or water solubility is low and thus concentration cannot be measured.

[3] = Evaluation of fluorescence quantum yield; conditions: PBS solution (pH 7.4)
Description: A PBS solution (pH 7.4) of the above compound was evaluated according to the method described in the following reference document.
“A Guide to Recording Fluorescence Quantum Yields” (a HORIBA Scientific document, available from https://www.horiba.com/fileadmin/uploads/Scientific/Documents/Fluorescence/quantumyields trad.pdf)
Regarding the fluorescence quantum yield, a high evaluation rank is highly preferable since the fluorescence quantum yield is excellent, and in the present test, it is preferable that the fluorescence quantum yield satisfies the evaluation rank “C” or higher from the viewpoint of practicality as the fluorescent compound.
—Evaluation Standards for Fluorescence Quantum Yield— • A: 0.5 or more • B: 0.3 or more and less than 0.5 • C: 0.1 or more and less than 0.3 • D: less than 0.1 • E: not evaluable due to low water solubility

[4] = Evaluation of maximum molar absorption coefficient; conditions: PBS solution (pH 7.4)
Description: A PBS solution (pH 7.4) of the above compound was evaluated according to the method described in the following reference document. The unit of the maximum molar absorption coefficient in the following evaluation standard is mol^−1 Lcm^−1.
“TECH TIP #6 Extinction Coefficients” (a document from Thermo Scientific, Inc., available from https://assets.thermofisher.com/TFS-Assets/LSG/Application-Notes/TR0006-Extinction-coeffi cients.pdf)
Regarding the maximum molar absorption coefficient, a high evaluation rank is highly preferable since the maximum molar absorption coefficient is excellent, and in the present test, it is preferable that the maximum molar absorption coefficient satisfies the evaluation rank “C” or higher from the viewpoint of practicality as the fluorescent compound.
—Evaluation Standard for Maximum Molar Absorption Coefficient— • A: 100,000 or more • B: 50,000 or more and less than 100,000 • C: 10,000 or more and less than 50,000 • D: less than 10,000 • E: not evaluable due to low water solubility

Row | Compound | Light resistance [1] | solubility at 30 min [2] | Fluorescence quantum yield [3] | Maximum molar absorption coefficient [4] | Water solubility [2] | Fluorescence quantum yield (comparison in words) [3]
1 | C=C[Si]1(C)C2=CC(=[N+](C)C)C=CC2=C(c2ccc(C(=O)[O-])cc2F)c2ccc(N(C)C)cc21 (stereo not shown) [Compound (2)] | A (100 hours or more) | 1 to 10 µM (≈ 0.459 to 4.59 µg/mL) | B (0.3 or more and less than 0.5) | A (100,000 or more) |  | 
2 | C=C[Si]1(C)C2=C/C(=N/C)C=CC2=C(c2sc(C(=O)O)cc2C)c2ccc(NC)cc21 (stereo not shown) [Compound (8)] | A (100 hours or more) | 1 to 10 µM (≈ 0.433 to 4.33 µg/mL) | C (0.1 or more and less than 0.3) | B (50,000 or more and less than 100,000) |  | 
3 | AlexaFluor647 | D (2 hours or more and less than 25 hours) |  | B (0.3 or more and less than 0.5) | A (100,000 or more) | A (100 μM or more) | 
4 | C=C[Si]1(C)C2=C/C(=[N+](\C)CC(F)(F)F)C=CC2=C(c2c(OC)cc(C(=O)[O-])cc2OC)c2ccc(N(C)CC(F)(F)F)cc21 (stereo not shown) [Compound (15)] |  | 1 to 10 µM (≈ 0.637 to 6.37 µg/mL) | A (0.5 or more) | C (10,000 or more and less than 50,000) |  | exhibits a better fluorescence quantum yield as compared with the compound (4)
5 | C=C[Si]1(C)C2=C/C(=N/C)C=CC2=C(c2c(F)cc(C(=O)O)cc2F)c2ccc(NC)cc21 (stereo not shown) [Compound (7)] | A (100 hours or more) | 1 to 10 µM (≈ 0.449 to 4.49 µg/mL) | B (0.3 or more and less than 0.5) | A (100,000 or more) |  | 
6 | C=C[Si]1(C)C2=C/C(=[N+]3\CCC(F)C3)C=CC2=C(c2c(OC)cc(C(=O)[O-])cc2OC)c2ccc(N3CCC(F)C3)cc21 (stereo not shown) [Compound (14)] |  | 1 to 10 µM (≈ 0.589 to 5.89 µg/mL) | A (0.5 or more) | B (50,000 or more and less than 100,000) |  | 
7 | C=C[Si]1(C)C2=CC(=[N+](C)C)C=CC2=C(c2c(OC)cc(C(=O)[O-])cc2OC)c2ccc(N(C)C)cc21 (stereo not shown) [Compound (4)] | A (100 hours or more) | 1 to 10 µM (≈ 0.501 to 5.01 µg/mL) | B (0.3 or more and less than 0.5) | A (100,000 or more) |  | 
8 | C=C[Si]1(C)C2=CC(=[N+](C)C)C=CC2=C(c2sc(C(=O)[O-])cc2C)c2ccc(N(C)C)cc21 (stereo not shown) [Compound (5)] | A (100 hours or more) | 1 to 10 µM (≈ 0.461 to 4.61 µg/mL) | D (less than 0.1) | A (100,000 or more) |  | 
9 | C=C[Si]1(C)C2=CC(=[N+]3CC(F)C3)C=CC2=C(c2c(OC)cc(C(=O)[O-])cc2OC)c2ccc(N3CC(F)C3)cc21 (stereo not shown) [Compound (13)] |  | 1 to 10 µM (≈ 0.561 to 5.61 µg/mL) | A (0.5 or more) | B (50,000 or more and less than 100,000) |  | 
10 | C=C[Si]1(C)C2=CC(=[N+]3CCS(=O)(=O)CC3)C=CC2=C(c2c(F)cc(C(=O)[O-])cc2F)c2ccc(N3CCS(=O)(=O)CC3)cc21 (stereo not shown) [Compound (6)] | A (100 hours or more) | 1 to 10 µM (≈ 0.657 to 6.57 µg/mL) | B (0.3 or more and less than 0.5) | A (100,000 or more) |  | exhibits a better fluorescence quantum yield as compared with the compound (1)
11 | C=C[Si]1(C)C2=C/C(=N/C)C=CC2=C(c2c(F)cc(C(=O)NCCOCCOCCOCCOCCC(=O)O)cc2F)c2ccc(NC)cc21 (stereo not shown) [Compound (9)] | A (100 hours or more) | 10 to 100 µM (≈ 6.96 to 69.6 µg/mL) | B (0.3 or more and less than 0.5) | A (100,000 or more) |  | 
